Assay results published in US12263248B2, “Compounds and compositions for intracellular delivery of therapeutic agents” (ModernaTX, Inc., priority 2018, dated 2025).
“Also recorded” adds a separate entry of the source.

Experiments:
[1] = Particle size and polydispersity index of nanoparticle compositions (Zetasizer Nano ZS); assay type: physicochemical; conditions: for PDI (Polydispersity index): lipid nanoparticle, ±SD within one assay run (Table 37)
Outline: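 Nanoparticle compositions are diluted in 1×PBS, then size and polydispersity index are read on a Zetasizer Nano ZS instrument.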

[2] = Encapsulation efficiency of RNA (QUANT-IT RIBOGREEN RNA assay); assay type: physicochemical; conditions: for % Encapsulation: lipid nanoparticle, ±SD within one assay run (Table 37); for EE: nanoparticle composition with hEPO mRNA (Table 30)
Outline: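 RiboGreen fluorescence (ex ~480, em ~520 nm) compared between intact samples and Triton X-100-lysed samples after 15 min at 37 °C in TE buffer, pH 7.5. Percent free RNA is the blank-corrected intact/disrupted ratio.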

luciferase (Luc) mRNA [3] = assay: Luc expression, whole body bioluminescence after intravenous administration to mice; assay type: in vivo; conditions: for Lipid/MC3 Luc expression: 0.5 mpk dose to mouse, 6 hours after administration; for Fold increase in total body Luc Flux relative to MC3 at 6 h: Table 3A, i.v. administration; for Novel lipid/MC3 ratio, 6 hr. timepoint, i.v. / Novel lipid/MC3 expression ratio, 6 hr. time point, i.v.: luciferase; for Novel lipid/MC3 ratio, 6 hr. timepoint, i.v.: relative to MC3, Table 3G; for Novel lipid/MC3 expression ratio, 6 hr. time point, i.v.: relative to MC3 formulation; for Total Flux 3 hours / Total Flux 6 hours / Total Flux 24 hours / luciferase activity relative to MC3 LNP control: mice; for Total Flux 3 hours / Total Flux 6 hours / Total Flux 24 hours: i.v., Luc mRNA; for luciferase activity relative to MC3 LNP control: 0.5 mg/kg (mRNA dose)
Outline: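 Luc mRNA nanoparticle formulations given intravenously to mice (n=6) at 0.5 mg/kg; whole-body bioluminescence imaged at 3, 6 and 24 h. CD-1 mice received IP D-luciferin (200 μL of 15 mg/mL) 15 min before imaging; total flux quantified by region of interest.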

luciferase (Luc) mRNA [4] = assay: Luc expression in liver, lung, spleen and femur 6 hours after intravenous administration; assay type: in vivo; conditions: mice, intravenous, 0.5 mpk
Outline: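 LNP-formulated mRNA given IV to mice (n=3) at 0.5 mpk; at 6 h, bioluminescence imaged ex vivo 15 min after IP D-luciferin (15 mg/mL, 200 μL), organs imaged within 25 min. Values are total flux by region of interest.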

IL-6, IP-10 = assay: Cytokine induction in mice upon intravenous administration; assay type: in vivo; parameters: Cytokine induction IL-6 / Cytokine induction IP-10: unit not given here; conditions: 0.5 mpk, 6 hours; for Cytokine induction IL-6 / Cytokine induction IP-10: intravenous
Outline: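 Mice dosed intravenously with nanoparticle compositions at 0.5 mpk; serum cytokine concentrations (IL-6, IP-10) measured at 6 hours. MC3 formulation and PBS controls run alongside.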

[5] = Table 1A, lipid:DSPC:cholesterol:PEG-DMG 50:10:38.5:1.5 mol %
[6] = Table 1B, formulated with hEPO mRNA
[7] = Table 1C, compositions for subcutaneous administration
[8] = Table 1D, for subcutaneous administration, # formulated with hEPO mRNA
[9] = nanoparticle composition with hEPO mRNA (Table 30)

Structure (SMILES)	PDI ([1]; Table 1A)	Size (nm) [1, 5] [nm]	PDI [1, 7]	Size (nm) [1, 7] [nm]	PDI (Polydispersity index) [1]	PDI [1, 9]	EE (%) ([2]; Table 1A)	% EE [2, 7] [%]	% Encapsulation [2] [%]	EE [2] [%]	Fold increase in total body Luc Flux relative to MC3 at 6 h (luciferase (Luc) mRNA [3])	Total Flux 3 hours (luciferase (Luc) mRNA [3]; 0.5 mg/kg)	Total Flux 6 hours (luciferase (Luc) mRNA [3]; 0.5 mg/kg)	Total Flux 24 hours (luciferase (Luc) mRNA [3]; 0.5 mg/kg)	Total Flux Femur (luciferase (Luc) mRNA [4])	Total Flux Liver (luciferase (Luc) mRNA [4])	Total Flux Lung (luciferase (Luc) mRNA [4])	Total Flux Spleen (luciferase (Luc) mRNA [4])	Cytokine induction IL-6 (IL-6, IP-10)	Cytokine induction IP-10 (IL-6, IP-10)	further results
CCCCCCCCCCCOC(=O)CCCCCN(CCO)CCCCCCCC(=O)OC(CCCCCCCC)CCCCCCCC [Compound 25, Heptadecan-9-yl 8-((2-hydroxyethyl)(6-oxo-6-(undecyloxy)hexyl)amino)octanoate]	0.10	85.8	0.16	76.3	0.10 ± 0.05	0.230	95.80	98.1	95.8 ± 1.0	87.01	1.89	2.27E+10	1.59E+10	9.77E+08	4.40E+06	2.41E+09	1.51E+07	3.11E+07	233.45	1194.13	PDI [1, 6]: 0.14; Size (nm) [1, 6]: 69.7 nm; PDI [1, 8]: 0.13; Size (nm) [1, 8]: 77.6 nm; EE (%) [2, 6]: 97.92%; % EE [2, 8]: 97.8%; Lipid/MC3 Luc expression (luciferase (Luc) mRNA [3]): 1.89; Novel lipid/MC3 ratio, 6 hr. timepoint, i.v. (luciferase (Luc) mRNA [3]; intravenous): 1.89; Novel lipid/MC3 expression ratio, 6 hr. time point, i.v. (luciferase (Luc) mRNA [3]; intravenous): 1.89; luciferase activity relative to MC3 LNP control (luciferase (Luc) mRNA [3]; intravenous): higher expression compared to MC3
CCCCCC/C=C\COC(=O)CCCCCCCN(CCO)CCCCCCCC(=O)OC(CCCCCCCC)CCCCCCCC [Compound 24, Heptadecan-9-yl (Z)-8_((2-hydroxyethyl) (8-(non-2-en-1-yloxy)-8-oxooctyl)amino)octanoate]	0.13	99.5	0.17	88.5			97.16	90.5			2.67	1.72E+10	2.25E+10	1.83E+09	4.54E+06	4.19E+09	1.71E+07	8.78E+07	163.53	1172.93	Novel lipid/MC3 ratio, 6 hr. timepoint, i.v. (luciferase (Luc) mRNA [3]; intravenous): 2.67; Novel lipid/MC3 expression ratio, 6 hr. time point, i.v. (luciferase (Luc) mRNA [3]; intravenous): 2.67
CCCCCCCCCCCCCCN(CCO)CCCCCCCC(=O)OC(CCCCCCCC)CCCCCCCC [Compound 2, Heptadecan-9-yl 8-((2-hydroxyethyl)(tetradecyl)amino)octanoate]	0.14	83.9					93.88				1.31	1.93E+10	4.31E+10	2.43E+09	3.86E+06	4.87E+09	2.52E+07	5.77E+07	70.95	468.86	
CCCCCCCCCOC(=O)CCCCCCCN(CCO)CCCCCCC(=O)OCC(CCCCCCCC)CCCCCCCC [Compound 143, Nonyl 8-((2-hydroxyethyl)(7-((2-octyldecyl)oxy)-7-oxoheptyl)amino)octanoate]	0.21	98.8					97.37					1.76E+10	2.03E+10	2.47E+08		1.76E+09	3.60E+07	1.42E+08	6.245	209.63	
CCCCCCCCCOC(=O)CCCN(CCO)CCCCCCCC(=O)OC(CCCCCCCC)CCCCCCCC [Compound 26, Heptadecan-9-yl 8-((2-hydroxyethyl)(4-(nonyloxy)-4-oxobutyl)amino) octanoate]	0.16	91.9			0.16 ± 0.03	0.120	97.43		97.4 ± 0.2	95.60	4.24	6.75E+10	1.57E+10	1.54E+09	4.67E+06	2.90E+09	1.18E+07	1.56E+07	273.56	2330.01	Lipid/MC3 Luc expression (luciferase (Luc) mRNA [3]): 4.24; fold increase in Luc expression over MC3 formulations (luciferase (Luc) mRNA [3]; intravenous administration, in words): highest fold increase; Fold increase in Luc expression relative to MC3, Intravenous (0.5 mpk dose) (luciferase (Luc) mRNA [3]; intravenous, 0.5 mpk): 4.24; luciferase activity relative to MC3 LNP control (luciferase (Luc) mRNA [3]; intravenous, 0.5 mg/kg): higher expression compared to MC3; also recorded: highest luciferase activity of the series; IL-6 induction (IL-6, IP-10; i.v., in words): highest; IP-10 induction (IL-6, IP-10; i.v., in words): highest
